Test results from patent publication US20220089600A1, “TGFß INHIBITOR AND PRODRUGS” (FUNDACIÓ INSTITUT DE RECERCA BIOMÈDICA (IRB BARCELONA), priority 2018, published 2022).

Key:
[1] = tested on: MTO129 liver metastases; test: Mouse liver metastasis initiation/formation assay with MTOs; assay type: in vivo; conditions: for Efficacy (Cure rate): two weeks, mice with no metastases
Description: Mouse tumor organoids (MTOs) are derived from compound transgenic mice (conditional mutations in Apc, Kras, Trp53 and Tgfbr2, as well as bearing Lgr5-EGFP/CreER^T2) of the C57BL6/J strain and cultured as described in Tauriello et al. 2018 Nature 554(7693): 538-543. doi: 10.1038/nature25492. Organoids are tumor epithelial cells grown in a 3D matrix where they adopt an organotypic architecture, typically as spheroids with a lumen. In this way, cells retain a relatively normal polarity (which means that the outside surface, inside/luminal surface and cell-cell contacts are individually specialized), which is more physiological than in conventional 2D cell culture.
In all experiments described in present invention MTO129 were used (Tauriello et al. Nature. 2018).
In patients, treatment doses were reduced to 80 to 150 mg b.i.d in a regime of 14 days on-14 days off.
MTOs expressing a luciferase reporter were measured by bioluminescence imaging, using retroorbital injection of 50 μl 15 mg/ml D-luciferin potassium salt (Resem BV). Photons per second from the region spanning thorax/abdomen were quantified and normalized to the measure at the day of injection.
Control mice were treated with 150 μl of vehicle.
In the experiment shown in FIG. 13, potency of the indicated compounds to inhibit metastasis formation was assessed. Mice were treatments with indicated compounds started two days after MTO129 transplantation and continued during two weeks. Mice were sacrificed at 4 weeks post transplantation and liver metastases (LiMs) were counted by eye on fixed livers.

[2] = tested on: MTO129 liver metastases; test: Liver metastasis formation assay versus compounds 338 and 337 (FIG. 17); assay type: in vivo, mouse; conditions: FIG. 17, 1× dose, day 2 to 18, count at 21 days
Protocol: In another experiment (FIG. 17), we compared the in vivo therapeutic activity of compound of formula I to the related compound 338 and compound 337. […] All mice were treated from day 2 to day 18 post inoculation of tumor cells. Number of liver metastases were counted at 21 days after MTO inoculation.

[3] = In vivo toxicity, histopathology; parameters: species or system mouse; conditions: for Sternum side effect, mice affected per mice tested / Long bones side effect, mice affected per mice tested: two weeks
Description: Number of cured mice, i.e. mice with no metastases at experimental end points, were score. Intestines, skin samples, hearts, thoracic skeletons and limbs of these mice were fixed in 10% formalin, phosphate buffered (Sigma). Soft tissues were embedded in paraffin blocks, sectioned and stained with haematoxylin & eosin. Bones were first decalcified for 2 weeks before embedding, sectioning and staining. An experienced pathologist analyzed tissues for histopathological abnormalities. […] Furthermore, the cartilage ossification zone at the ends of the long bones was analysed for defects in the hypertrophic zone.

[4] = tested on: HEK293T cells; test: In vitro cytotoxicity, XTT assay; assay type: cell-based; conditions: 24h
Protocol: To assess the toxicity of the compound of formula I in vitro, HEK293T cells were seeded in 96-well plates and treated for 24h with indicated compounds. DMSO was used as a control.
Cell viability was assessed by the XTT assay (Biological Industries), according to the manufacturer's instructions, incubating for 4h prior to measurement.

[5] = biological target: T1, ALK5 (TGFBR1) (Homo sapiens, UniProt P36897); test: KINOMEscan affinity, competition binding
T1 sequence (P36897 34-503): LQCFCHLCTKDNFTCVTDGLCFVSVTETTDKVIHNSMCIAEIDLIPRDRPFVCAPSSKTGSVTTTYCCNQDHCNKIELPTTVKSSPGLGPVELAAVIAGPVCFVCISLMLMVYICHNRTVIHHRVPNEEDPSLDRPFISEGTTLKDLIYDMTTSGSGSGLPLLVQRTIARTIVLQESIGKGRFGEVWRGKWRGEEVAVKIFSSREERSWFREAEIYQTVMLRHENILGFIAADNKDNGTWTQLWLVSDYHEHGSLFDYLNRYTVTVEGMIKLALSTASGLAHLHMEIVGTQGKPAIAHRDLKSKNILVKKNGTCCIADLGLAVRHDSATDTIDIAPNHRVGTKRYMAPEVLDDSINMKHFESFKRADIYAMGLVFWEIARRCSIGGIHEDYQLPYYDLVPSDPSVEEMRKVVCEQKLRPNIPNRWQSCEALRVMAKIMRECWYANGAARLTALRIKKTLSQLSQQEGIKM
Protocol: (§1) The affinity, measured as Kd (dissociation constants), of the compound of formula I for the ALK family was determined by using the KINOMEscan™ Technology from Eurofins. Selectivity in front of ALK1 (ACVRL1), ALK2 (ACVR1), ALK3 (BMPR1A), ALK4 (ACVR1B), ALK6 (BMPR1B), ACVR2B and TGFβR2 was determined.
(§2) The assay is performed by combining three components: DNA-tagged kinase; immobilized ligand; and a test compound. The ability of the test compound to compete with the immobilized ligand is measured via quantitative PCR of the DNA tag.
(§3) Test compounds were prepared as 111× stocks in 100% DMSO. Kds were determined using an 11-point 3-fold compound dilution series with three DMSO control points being the top concentration 30 μM. […] The compounds were then diluted directly into the assays such that the final concentration of DMSO was 0.9%. All reactions performed in polypropylene 384-well plate. Each was a final volume of 0.02 ml. […] The beads were then re-suspended in elution buffer (1×PBS, 0.05% Tween 20, 0.5 μM non-biotinylated affinity ligand) and incubated at room temperature with shaking for 30 minutes. The kinase concentration in the eluates was measured by qPCR.
(§4) Dissociation constants (Kds) for test compound-kinase interactions are calculated by measuring the amount of kinase captured on the solid support as a function of the test compound concentration.

[6] = biological target: T2, ALK4 (ACVR1B) (Homo sapiens, UniProt P36896); test: KINOMEscan affinity, competition binding
T2 construct: purchased Eurofins (KINOMEscan service)
T2 sequence (P36896 24-505): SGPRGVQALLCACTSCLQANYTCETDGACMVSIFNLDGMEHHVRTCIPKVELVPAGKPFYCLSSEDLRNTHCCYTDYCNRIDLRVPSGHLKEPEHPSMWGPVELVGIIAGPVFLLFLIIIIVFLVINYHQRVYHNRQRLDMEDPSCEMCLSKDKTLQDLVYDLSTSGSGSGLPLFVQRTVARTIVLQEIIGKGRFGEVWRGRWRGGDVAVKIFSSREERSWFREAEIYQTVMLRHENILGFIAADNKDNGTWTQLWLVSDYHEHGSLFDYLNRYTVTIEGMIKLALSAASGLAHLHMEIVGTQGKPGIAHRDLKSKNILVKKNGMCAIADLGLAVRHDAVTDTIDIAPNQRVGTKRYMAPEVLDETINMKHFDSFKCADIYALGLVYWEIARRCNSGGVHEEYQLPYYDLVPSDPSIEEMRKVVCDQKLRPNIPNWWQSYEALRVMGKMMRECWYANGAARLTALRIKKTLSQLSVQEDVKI
Protocol: as §1, §2, §3, §4

For Cc1cccc(-c2nn3c(c2-c2ccnc4ccc(O)cc24)CCC3)n1 [compound of formula I, 4-(2-(6-methylpyridin-2-yl)-5,6-dihydro-4H-pyrrolo[1,2-b]pyrazol-3-yl)quinolin-6-ol], the “Efficacy (Cure rate)” value ([1]; 0.3x dose) was about 90%, the “Efficacy (Cure rate)” value ([1]; 1x dose) was about 90% and the “Efficacy (Cure rate)” value ([1]; 3x dose) was 100%. For the same compound, the “Efficacy (Cure rate)” value ([1]; 9x dose) was 100%, the “liver tumor count (LiMs) compared to galunisertib” value ([1]; FIG. 3, 0.3× to 9× doses) was “significant lower amount of liver tumors” and the “metastatic tumor growth inhibitory capacity (bioluminescence)” value ([1]; FIG. 4, 0.3× dose, day 3 until day 14) was “effective”. For the same compound, the “activity in preventing liver metastasis formation, in words” value ([1]; FIG. 13, 0.3× dose (21.25 mg/Kg b.i.d)) was “still effective”, the “activity in preventing liver metastasis formation, in words” value ([1]; FIG. 13, 1× dose) was “significant improved activity” and the “effective dose, fold lower than the effective Galunisertib dose” value ([1]; in vivo experiments) was 10 fold. The “effective dose (>50% efficacy)” value ([1]; oral, divided b.i.d.) was 42.5 mg/kg/day, the “potency to block the formation of metastasis compared to compound 338 and compound 337” value [2] was “enhanced potency” and the “Combined side effects per number tested” value ([3]; 0.3x dose) was 0/5. The “Toxicity (%)” value ([3]; 0.3x dose) was 0%, the “Sternum side effect, mice affected per mice tested” value ([3]; 0.3x dose) was 0/5 and the “Combined side effects per number tested” value ([3]; 1x dose) was 0/5. For the same compound, the “Toxicity (%)” value ([3]; 1x dose) was 0%, the “Sternum side effect, mice affected per mice tested” value ([3]; 1x dose) was 0/5 and the “pathological analysis of the skin and intestine” value ([3]; 1× doses) was “No pathological anomalies”. The “Combined side effects per number tested” value ([3]; 3x dose) was 2/10, the “Toxicity (%)” value ([3]; 3x dose) was 20% and the “Long bones side effect, mice affected per mice tested” value ([3]; 3x dose) was 1/5. The “Sternum side effect, mice affected per mice tested” value ([3]; 3x dose) was 1/5, the “Combined side effects per number tested” value ([3]; 9x dose) was 4/8 and the “Toxicity (%)” value ([3]; 9x dose) was 50%. The “Long bones side effect, mice affected per mice tested” value ([3]; 9x dose) was 3/4, the “Sternum side effect, mice affected per mice tested” value ([3]; 9x dose) was 1/4 and the “toxic dose (toxicity >50%)” value ([3]; 9× dose equivalent) was 1272 mg/kg/day. For the same compound, the “therapeutic index (toxic dose/effective dose)” value ([3]; dose equivalents) was 30, the Cell viability ([4]; 30 μM) was 93% and the Cell viability ([4]; 100 μM) was 64%. For the same compound, the “Selectivity against ALK5” value ([5]; ALK5 versus ALK5) was 1, the Kd ([5]; KINOMEscan) was 20 nM and the “ALK5 binding affinity, times higher than Galunisertib” value ([5]; versus published galunisertib data) was 8.6 times. For the same compound, the Selectivity improvement ([6]; (I) versus Galunisertib) was 1.4 and the “Selectivity against ALK5” value ([6]; ALK4 versus ALK5) was 0.7.
